Data published in patent US5409932A, “Piperazine-substituted pyrroloanthracenes” (Bayer AG, priority 1993, dated 1995).

How the values were obtained:
[1] = test system: Adjuvant Arthritis model in the Rat; assay: Adjuvant Arthritis model in the Rat (paw swelling); format: in vivo; settings: Lewis rats; for inhibition in vivo at 10 mg/kg: Rattus norvegicus, ip, 384 h, 10 mg/kg i.p., days 0, 1, 2, 5, 7, 9, 12 and 14, day 16 vs day 0, read-out: Inhibition of the swelling (%), after administration of 10 mg/kg i.p.; for Inhibition of the swelling (%), after administration of 10 mg/kg i.p.: days 0, 1, 2, 5, 7, 9, 12 and 14, day 16 vs day 0
Method: Adjuvant Arthritis model in the Rat
Freund's adjuvant (FA) is prepared by addition of 10 mg/ml of heat-killed Mycobacterium butyricum to extra-heavy mineral oil. Lewis rats receive a 0.1 ml injection of FA (1 mg/animal) subcutaneously in the right hind paw. An acute inflammation takes place there, which is characterized by reddening, edema and a predominant neutrophilic cell infiltration (primary reaction). Tumescent areas in the treated paw on day 5 are followed between day 10-12 by an increase in the swelling (chronic inflammatory reaction) and the occurrence of a swelling in the opposite untreated paw (secondary immune response).
The cell infiltration of the chronic inflammation and the second immune response are mainly mononuclear, which indicates the presence of T-cell mediated immunity. The animals are observed daily, and the swelling is measured in millimeters on days 12 and 16 using a hand-adjustable micrometer. The swelling reaches its peak on the 16th day, on which the animals are sacrificed and tissue samples are taken for histological evaluation.
The extent of the swelling is determined by calculation of the greatest difference in the malleolus diameter between the 16th and the 0th day.
The animals receive the compounds according to the invention in a suspension of 5% polyethylene glycol and 0.5% Tween 80 in phosphate buffer solution p.o. or i.p. on days 0, 1, 2, 5, 7, 9, 12 and 14 [cf. for this purpose L. Sokoloff, 1984, Int. Rev. Exp. Pathol. 26, 107; M. E. J. Bittingham et al., 1989, J. Exp. Med. 171, 339; K. M. Conholly et al., 1989, Agents and Actions 27, 328].

human T cells = assay: Inhibition of 5-HT-dependent T Cell Proliferation; format: cell-based; settings: monocyte-free human T cells stimulated with PWM and 5-HT, 3H-thymidine incorporation, 7 days
Text: The in vitro activity of the compounds according to the invention results from their capability to inhibit T cell proliferation, which is previously stimulated by serotonin.
Inhibition of 5-HT-dependent T Cell Proliferation
Peripheral mononuclear blood cells (PBMC) are obtained from the buffy coat of the blood of healthy subjects. After isolation by means of isolymph gradients (Pharmacia), the PBMC are washed twice and used directly. Purified T cells are obtained by E rosette formation with sheep erythrocytes [cf. Blue, M.-L. , J. F. Daley, H. Levine, K. A. Craig and S. F. Schlossmann, 1986, Biosynthesis and surface expression of T8 by peripheral blood T4+cells in vitro, J. Immunol. 137, 1202]. Monocytes are partially removed by adhesion to tissue culture plates or flasks. PBMC, T cells or purified T cells (depleted in monocytes) at 5×10^5 /ml, 100 μl/well are cultured in RPMI 1640 medium with 10% fetal calf serum (GIBCO) and L-glutamine in 96-well microculture plates (Becton--Dickinson)under a 5% CO2 atmosphere at 37° C. for 7 days. The cultures are treated with 1 μCi of ^3 H-thymidine for 6 h on the 7th day and collected on filter paper, and the incorporated radioactivity is determined by means of liquid scintillation counting.
The test substances are dissolved in 10 mM HCl in order to achieve a final concentration of 1 mM in each case. The compounds are diluted serially 3×with medium in order to obtain a final concentration between 33 μM-0.1 μM. PWM (1:200, pokeweed mitogen) and 5-HT (100 μm, serotonin), which contain the test substances, are added to monocyte-free human T cells. The positive control (maximum proliferation) is obtained from cultures containing T cells, PWM and 5-HT. The negative control (minimal proliferation) is obtained from cultures containing T cells and PWM without 5-HT. The inhibitory activity of the test substances is expressed as the IC50 in μM. (see also WO 92/04015)

| Structure (SMILES) | inhibition in vivo at 10 mg/kg [1] | IC50 (human T cells; Homo sapiens, T-cell) | Inhibition of the swelling (%), after administration of 10 mg/kg i.p. [1] | IC50 (human T cells) |
| --- | --- | --- | --- | --- |
| c1ccc(N2CCN(CCCCCCN3CC4C5c6ccccc6C(c6ccccc65)C4C3)CC2)cc1 (stereo not shown) [Example 64] | 76% | 1 µM |  |  |
| CC12C(=O)N(CCCN3CCN(c4ccc(F)cc4)CC3)C(=O)C1C1c3ccccc3C2c2ccccc21 (stereo not shown) [Example 40] | 29% | 5 µM |  |  |
| Fc1ccccc1N1CCN(CCCCN2CC3C4c5ccccc5C(c5ccccc54)C3C2)CC1 (stereo not shown) [Example 72] | 87% | 2 µM |  |  |
| c1ccc(N2CCN(CCCCCN3CC4C5c6ccccc6C(c6ccccc65)C4C3)CC2)cc1 (stereo not shown) [Example 63] | 26% | 0.5 µM |  |  |
| c1ccc(N2CCN(CCN3CC4C5c6ccccc6C(c6ccccc65)C4C3)CC2)cc1 (stereo not shown) [Example 60] | 40% | 5 µM |  |  |
| CC12c3ccccc3C(c3ccccc31)C1C(=O)N(CCCN3CCN(c4ccccc4)CC3)C(=O)C12 (stereo not shown) [Example 29] | 24% | > 10 µM |  |  |
| CC12c3ccccc3C(c3ccccc31)C1C(=O)N(CCCN3CCN(c4ccc(Cl)cc4)CC3)C(=O)C12 (stereo not shown) [Example 30] | 47% | 5 µM |  |  |
| c1ccc(N2CCN(CCCCN3CC4C5c6ccccc6C(c6ccccc65)C4C3)CC2)cc1 (stereo not shown) [Example 62] | 90% | 5 µM |  |  |
| O=C1C2C3c4ccccc4C(CO)(c4ccccc43)C2C(=O)N1CCCN1CCN(c2ccc(F)cc2)CC1 (stereo not shown) [Example 33] | 33% | > 10 µM |  |  |
| Clc1ccccc1N1CCN(CCCN2CC3C4c5ccccc5C(c5ccccc54)C3C2)CC1 (stereo not shown) [Example 82] | 35% | 5 µM |  |  |
| CC12C(=O)N(CCCN3CCN(c4ccccc4)CC3)C(=O)C1C1c3ccccc3C2c2ccccc21 (stereo not shown) [Example 39] | 20% | > 10 µM |  |  |
| Cc1ccc(N2CCN(CCCCN3CC4C5c6ccccc6C(c6ccccc65)C4C3)CC2)cc1 (stereo not shown) [Example 74] | 76% | 0.6 µM |  |  |
| Clc1ccc(N2CCN(CCCN3CC4C5c6ccccc6C(c6ccccc65)C4C3)CC2)cc1 (stereo not shown) [Example 59] |  | 3 µM | 53% |  |
| Cc1cccc(C)c1N1CCN(CCCN2CC3C4c5ccccc5C(c5ccccc54)C3C2)CC1 (stereo not shown) [Example 88] | 73% | 1 µM |  |  |
| Cc1ccc(N2CCN(CCCN3C(=O)C4C5c6ccccc6C(c6ccccc65)C4C3=O)CC2)cc1 (stereo not shown) [Example 11] | 32% | > 10 µM |  |  |
| c1ccc(N2CCN(CCCN3CC4C5c6ccccc6C(c6ccccc65)C4C3)CC2)cc1 (stereo not shown) [Example 61] | 50% | 5 µM |  |  |
| Clc1ccc(N2CCN(CCCN3CC4C5c6ccccc6C(c6ccccc65)C4C3)CC2)cc1 (stereo not shown) [Example 109] |  |  | 34% | 5 µM |
